These antisense oligonucleotides have a phosphorothioate backbone; sugars and methylation of C are not fully specified. A value given as a limit tells only on which side of the number the result lay.
Further: test concentration or dose not given here.

The first data set addresses PRKAR2A. The conditions noted are these: ASO.
In the case of CAGGAACAGTTCTGTCATGT, the remaining target (mRNA or protein) (fraction of control) was 0.65.
On the same count and under the same terms, as for CCCGAGGTTGCCCAGATCCA, the figure is ≥ 1.
AGGCGGGTGAAGTACTCCAC registered a remaining target (mRNA or protein) (fraction of control) of 0.46.
The same measure, in the same setting: the value for TAATGAATGGGCCTTCAGAA was ≥ 1; that for TTTAGTCCTGCTTCTAATCA was 0.73.
CACACCTACTGCCCGAGGTT displayed a remaining target (mRNA or protein) (fraction of control) of 0.38.
Regarding CTGGATGTGGCTCATGCCGG, the remaining target (mRNA or protein) (fraction of control) turned out to be 0.52.
In turn, GCAGCGGGCAATCTCGACCT had a remaining target (mRNA or protein) (fraction of control) of 0.5.
On the same count and under the same terms, the value for CTAGGAACTGGAACTTCCAA was 0.91; that for GTGGCTCATGCCGGCGGCGG was ≥ 1.
The same measure, in the same setting: as for TGCCGGCGGCGGCCGAAGGG, the figure is ≥ 1; as for TTTGTTGGTGACCAGGGCAA, 0.6; as for GCGGCCACTGTCTCCGCGCT, 0.67.
As to ATCTGGATGTGGCTCATGCC, the remaining target (mRNA or protein) (fraction of control) came to 0.82.
On the same count and under the same terms, the value for TGTGGCTGACCAGAAGGTTT was 0.53; that for CCATGCAGGGCCCCAGAAGC was 0.52; that for GCGCAACCCTACGCTACCAC was 0.53.
On the same count and under the same terms, the value for GGGTGTTGTACATCAGAGCT was 0.87.

In the next data set the target is CHEK2. The settings on record: ASO.
For the sequence CGTGCTGGTAGAGGAGCTGG, the remaining target (mRNA or protein) (fraction of control) was determined as 0.77.
Sequence TTCTCTGAGACTTCTGCCCA displayed a remaining target (mRNA or protein) (fraction of control) of 0.49.
The same measure, in the same setting: as for TCCACAGCACGGTTATACCC, the figure is 0.28; as for ATTCTCTGGCTTTAAGTCAC, 0.63.
Still for that read-out and setting: as for CTCTCGAAAGCCAGCTTTAC, the figure is 0.31; as for CAGAGTGAAAGAAGGACATT, ≥ 1.
Take TGAGATGACAGTAAAACATT: the remaining target (mRNA or protein) (fraction of control) was ≥ 1.
The same measure, in the same setting: the value for TATTCATCTCTTAATGCCTT was 0.61; that for TAATCTTTATAAGACAGTCC was 0.88.
On the same count and under the same terms, as for ATTTCTGCTTAGTGACAGTG, the figure is 0.65.
On the same count and under the same terms, as for CAGTAGTTGTCATTCACACA, the figure is 0.49.
As for GACTTCAGGAATGAAGTTGT, the remaining target (mRNA or protein) (fraction of control) was ≥ 1.
Still for that read-out and setting: as for AAACTTTCTCTTCATGTCTT, the figure is ≥ 1; as for AAGGCTTCTTCTGTCGTAAA, 0.96.
On the same count and under the same terms, as for TCAGTGACACTTGAGTCCTA, the figure is 0.87; as for TCAGCAGTGGTTCATCAAAG, 0.63.
The same measure, in the same setting: as for CTTGGGACTGGGTAACGCTG, the figure is 0.93; as for TGTTCAAACCACGGAGTTCA, 0.62; as for TTTTAATCTTGATGATGCAA, 0.71.
On to CCATCAATTCCAAAACAATA, for which the remaining target (mRNA or protein) (fraction of control) was ≥ 1.
Same read-out and setting: the value for CATGAGAGAGGTCTCTCCCA was 0.85.
With AGGAATAGAATAGAGTTCCT, the remaining target (mRNA or protein) (fraction of control) was ≥ 1.
Regarding AACTTCTTGACAAGGTCCAG, the remaining target (mRNA or protein) (fraction of control) was determined as 0.8.
Still for that read-out and setting: the value for AGCAGTCCCAACAGAAACAA was 0.95.
Consider GTAGAGCTGTGGATTCATTT, for which the remaining target (mRNA or protein) (fraction of control) was found to be 0.67.
On the same count and under the same terms, as for GACGGCGTTTTCCTTTCCCT, the figure is 0.49; as for AATCCGAAAGTGTTTCTTGC, ≥ 1.
Still for that read-out and setting: the value for AACATCCGACTCCCGAGACA was 0.65; that for GAGAGCTGGGTCTGCCTCTC was 0.73.
Same read-out and setting: the value for CCATTGCCACTGTGATCTTC was 0.46; that for TCCTTTTGCTGATGATCTTT was 0.57.
On to TATTCCATAATTAAATCCAA, for which the remaining target (mRNA or protein) (fraction of control) was ≥ 1.
Sequence AAGGGCCCATAATCGAGCCC showed a remaining target (mRNA or protein) (fraction of control) of 0.78.
Still for that read-out and setting: the value for CCACGGAGTTCACAACACAG was 0.74.
Same read-out and setting: the value for GAAGCCACGGGTGTCTTAAG was 0.86; that for CAGTGTCCCAGAGCTGGAGT was ≥ 1; that for TTTATTCCCCACCACTTTGT was 0.38.
Same read-out and setting: the value for TTTGTGGTCTCGGCACCCTC was 0.77.
With AGAATAACTCCTAAACTCCA, the remaining target (mRNA or protein) (fraction of control) stood at 0.82.
On the same count and under the same terms, the value for GTACTGCACAGCCAAGAGCA was 0.79.

For the origin of these results see the OligoGym collection.
